Several values for one entry are separate records, joined by “and”; a condition that tells them apart may be missing. Equal values may be shown once.
Assays:
MPTP-induced male mice [1] = assay: IHC of Iba-1+ microglia in STR and SNpc, MPTP-induced mice; type: in vivo, mouse; conditions: for Iba-1+ cells in STR (% of control): Figure 4m; for Iba-1+ cells in STR (% of control) / Iba-1+ cells in SNpc (% of control): MPTP-induced mice, individual animal values; for Iba-1+ cells in SNpc (% of control): Figure 4n
Experimental: (§1) MPTP (Sigma-Aldrich) was intraperitoneally (i.p.) injected (30 mg/kg) for 5 days (Day 1-5). […] To test dyskinetic involuntary behavior, an L-DOPA injected group was included, which received 50 mg/kg of L-DOPA and 15 mg/kg of benserazide (Sigma-Aldrich) (i.p.) for 16 days (Day 1–16). All compounds were administered 6 h post-MPTP injection to avoid any effect of compounds on the MPTP metabolism in the brain. Motor and non-motor related behavior tests were performed on the following days as described in Fig. 4a in an assessor- and observer-blinded fashion. Pre-training and baseline setup for motor-related behaviors were performed 3 days prior to the injections. Mice were sacrificed and subjected to immunohistochemistry. Mice were housed at the Animal Care Facilities of McLean Hospital under a 12-h light/12-h dark cycle, ambient temperature and humidity. Animals were handled in accordance with McLean Hospital’s Institutional Animal Care and Use Committee (Protocol #: 2015N000002) and followed National Institutes of Health guidelines.
Images were acquired using a KEYENCE microscope and quantified as the number or optical density of immunoreactive cells using ImageJ software.
The numbers of TH^+ DA neurons, NeuN^+ neurons, pS129 αSyn^+ cells in the SN and Iba-1^+ microglia in the SN and striatum were stereologically counted in six coronal sections (30 µm thickness) taken every 6th section (180 µm intervals) for each brain. The boundaries of the SN and striatum were delimited at low magnification (4X) to estimate each total area. Immunoreactive cells were counted with images taken at high magnification (×40) by a single blinded investigator. The group mean of the total number of immunoreactive cells from each brain was transformed as percentage of the number in the control group (%). For AAV-αSyn-induced mice, the group mean of the total number of cells in the ipsilateral side was transformed as a percentage of that observed in the contralateral side.

[2] = tested on: AAV-αSyn-induced male mice; assay: Cylinder test, AAV-αSyn-induced PD model mice; type: in vivo, mouse; conditions: αSynWT and αSynA53T mice; CQ 40, 4A7C-301 5 mg/kg/day i.p.
Description: Adeno-associated viruses (AAVs) expressing GFP only or αSyn (wild-type or A53T) were kindly provided by Dr. Yoon Seong Kim from the University of Central Florida. Recombinant AAV vectors were produced using modified pAAV-IRES-hrGFP (Agilent) to express wild-type and mutant human αSyn under control of the CMV promoter. Viral particles (AAV2) were produced at the University of Iowa Viral Vector Core according to standard operating procedures (https://medicine.uiowa.edu/vectorcore/). […] AAV vectors were delivered into the substantia nigra unilaterally by stereotaxic surgery.
Mice were placed in a transparent plastic cylinder (15.5 cm high, 12.7 cm diameter) with a mirror behind it. Spontaneous activity was recorded and measured as counting the number of rearing events for 3 min session. A rear was considered only when the mouse touched the wall of the cylinder with its forelimb paws while standing on its hindlimbs (vertical movement) to count meaningful physiological movements.

MPTP-induced male mice [3] = assay: Olfactory discrimination test, MPTP-induced PD model mice; type: in vivo, mouse; conditions: for olfaction, olfactory discrimination test (in words): CQ 40, 4A7C-301 5, L-DOPA 50 mg/kg/day, i.p.
Experimental: as §1
The olfactory discrimination test was designed based on Prediger et al.. Briefly, mice were placed in a chamber (40 (w) × 20 (d) × 20 (h) cm) segmented with two identical compartments containing fresh sawdust (non-familiar odor) on one side and unchanged sawdust (familiar odor; maintained for 3 days before the test) on the other side. Mice could choose between one or another area by freely passing through an open door, for 5 min. Mice movements were monitored with EthoVision XT version 7.0 (Noldus) and time (s) and distance (cm) traveled in each compartment were recorded and analyzed.

MN9D cells = assay: Cytotoxicity, LDH release, MPP+-treated MN9D cells; type: cell-based, mouse
Experimental: Cells were transfected with Nurr1 subcloned into pcDNA3.1 vector[23] for Nurr1 overexpression (OE). […] Nurr1 OE or KD by transfection was analyzed by Western blot.
Cellular oxidative stress was detected using the DCFDA Cellular ROS Assay Kit (Abcam) according to the manufacturer’s protocol. Briefly, cells seeded in black clear bottom 96 well plate were stained with DCFDA solution (20 µM) for 45 min at 37 °C. […] Cytotoxicity was determined by measuring lactate dehydrogenase (LDH) release into the culture medium using a LDH cytotoxicity detection kit (Roche)[33]. Absorbance was measured at 490 nm with a microplate reader and cytotoxicity was calculated as a percentage (%) relative to 1% TritonX-100 control. Cell viability was determined using 3-(4,5-dimethylthiazol-2-yl)-2,5-diphenyltetrazolium bromide (MTT) as previously described. Briefly, cells were incubated with 5 mg/ml of MTT (Sigma-Aldrich) solution for 3.5 h at 37 °C. MTT formazan crystals were dissolved in 10 times the volume of MTT solvent (4 mM HCl and 0.1% Nonidet P-40 in isopropanol) and the absorbance from the generated blue formazan was measured at 570 nm after 15 min incubation at room temperature. Cell viability was calculated as a percentage (%) of MTT reduction relative to vehicle control.

[4] = Figure 4e, MPTP-induced mice, individual animal values
[5] = Fig. S3f, MPP+, Control, CQ 100 µM, 4A7C-301 1 µM
[6] = Fig. S3f, MPP+, Nurr1 KD, CQ 100 µM, 4A7C-301 1 µM
[7] = Fig. S3f, MPP+, Nurr1 OE, CQ 100 µM, 4A7C-301 1 µM

CCN1CCN(c2cc(N3CCN(CC)CC3)nc(NCCNc3ccnc4cc(Cl)ccc34)n2)CC1 [4A7C-301, N^1-(4,6-bis(4-ethylpiperazin-1-yl)pyrimidin-2-yl)-N^2-(7-chloroquinolin-4-yl)ethane-1,2-diamine]
Iba-1+ cells in STR (% of control) (MPTP-induced male mice [1]): 125.5 % of control and 139.6 % of control and 120.61 % of control and 117.09 % of control and 138.52 % of control and 80.29 % of control and 135.9 % of control
Iba-1+ cells in SNpc (% of control) (MPTP-induced male mice [1]): 160.25 % of control and 167.13 % of control and 152.39 % of control and 127.81 % of control and 217.28 % of control and 189.75 % of control and 198.6 % of control
Iba-1+ microglia in STR and SN (in words) (MPTP-induced male mice [1]; MPTP mice): markedly reduced
motor deficits, cylinder test (rearing) (in words) [2]: improved motor deficits
olfaction, olfactory discrimination test (in words) (MPTP-induced male mice [3]): significantly restored
Velocity (MPTP-induced male mice [3]; [4]): 4.45 cm/s and 5.11 cm/s and 5.02 cm/s and 4.95 cm/s and 5.52 cm/s and 4.32 cm/s and 6.05 cm/s and 4.65 cm/s and 4.59 cm/s
Duration to stay (sec), New bedding (MPTP-induced male mice [3]; Figure 4e, New bedding, MPTP-induced mice, individual animal values): 163.9 s and 142.98 s and 108.88 s and 102.84 s and 124.52 s and 121.25 s and 140.21 s and 123.92 s and 115.28 s
Duration to stay (sec), Old bedding (MPTP-induced male mice [3]; Figure 4e, Old bedding, MPTP-induced mice, individual animal values): 181.18 s and 132.3 s and 153.69 s and 187.59 s and 195.2 s and 172.27 s and 176.41 s and 155.62 s and 172.61 s
LDH release (%) (MN9D cells; Fig. S1g, with MPP+, conc. 0.1 µM, replicates): 41.8716% and 42.3575% and 42.6815%
LDH release (%) (MN9D cells; Fig. S1g, with MPP+, conc. 0.5 µM, replicates): 39.0371% and 39.604% and 39.28%
LDH release (%) (MN9D cells; Fig. S1g, with MPP+, conc. 1 µM, replicates): 37.6198% and 37.0529% and 37.2958%
LDH release (%) (MN9D cells; Fig. S1g, with MPP+, conc. 5 µM, replicates): 37.2149% and 37.0124% and 37.6198%
LDH release (%) (MN9D cells; Fig. S1g, with MPP+, conc. 10 µM, replicates): 36.486% and 37.8628% and 37.3363%
LDH release (%) (MN9D cells; [5]): 38.8915% and 36.4082% and 36.6047% and 41.8443%
LDH release (%) (MN9D cells; [6]): 55.7866% and 55.7395% and 56.0212% and 56.0866%
LDH release (%) (MN9D cells; [7]): 24.7388% and 23.725% and 24.6956% and 22.8802%
LDH release (%) (MN9D cells; Fig. S3d, with MPP+, 0.1 µM): 43.0575% and 41.9759% and 41.8986%
LDH release (%) (MN9D cells; Fig. S3d, with MPP+, 0.5 µM): 40.7398% and 41.2806% and 41.0489%
LDH release (%) (MN9D cells; Fig. S3d, with MPP+, 1 µM): 39.0016% and 38.0746% and 37.5724%
LDH release (%) (MN9D cells; Fig. S3d, with MPP+, 5 µM): 38.2677% and 37.7656% and 37.302%
LDH release (%) (MN9D cells; Fig. S3d, with MPP+, 10 µM): 35.5638% and 36.4136% and 37.4179%
concentration of maximal efficiency, times lower than CQ (MN9D cells; MN9D cells, MPP+-induced cytotoxicity): ~ 20 times

CCN(CC)CCCC(C)Nc1ccnc2cc(Cl)ccc12 (centres unmarked) [CQ, chloroquine]
Iba-1+ cells in STR (% of control) (MPTP-induced male mice [1]): 156.51 % of control and 147.74 % of control and 143.13 % of control and 144.76 % of control and 151.54 % of control and 162.57 % of control and 147.11 % of control and 149.46 % of control
Iba-1+ cells in SNpc (% of control) (MPTP-induced male mice [1]): 165.17 % of control and 275.28 % of control and 277.25 % of control and 239.89 % of control and 248.74 % of control and 269.38 % of control and 278.23 % of control
motor deficits, cylinder test (rearing) (in words) [2]: partial recovery
olfaction, olfactory discrimination test (in words) (MPTP-induced male mice [3]): significantly restored
Velocity (MPTP-induced male mice [3]; [4]): 3.95 cm/s and 4.45 cm/s and 4.51 cm/s and 5.91 cm/s and 5.61 cm/s and 5.73 cm/s and 4.26 cm/s and 5.02 cm/s and 3.4 cm/s and 5.27 cm/s and 6.07 cm/s
LDH release (%) (MN9D cells; [5]): 40.5948% and 42.0584% and 38.5456% and 42.2156%
LDH release (%) (MN9D cells; [6]): 55.6098% and 56.4684%
LDH release (%) (MN9D cells; [7]): 26.1572% and 27.9568% and 27.0629%
LDH release (%) (MN9D cells; Fig. S3d, with MPP+, 1 µM): 41.5124% and 43.1347% and 42.8643%
LDH release (%) (MN9D cells; Fig. S3d, with MPP+, 5 µM): 41.2806% and 41.8214% and 41.3965%
LDH release (%) (MN9D cells; Fig. S3d, with MPP+, 10 µM): 39.6197% and 38.7699% and 40.5081%
LDH release (%) (MN9D cells; Fig. S3d, with MPP+, 50 µM): 38.5767% and 38.7312% and 38.1518%
LDH release (%) (MN9D cells; Fig. S3d, with MPP+, 100 µM): 37.1862% and 37.0703% and 38.1905%

From publication PMC10354055, “An optimized Nurr1 agonist provides disease-modifying effects in Parkinson’s disease models” (Nature Communications, 2023)
